Reference: ChEMBL document CHEMBL1151907, “Cyclic glycopeptidomimetics through a versatile sugar-based scaffold” (Bioorg Med Chem Lett, 2009)
Activity calls are given as the source filed them. The rule behind the calls is not given here.

Key:
[1] = molecular target: T1, Substance-K receptor (Homo sapiens) (UniProt P21452); experiment: Displacement of [125I]neurokinin A from human tachykinin NK2 receptor expressed in CHO cell at 10 uM; assay type: cell-based
T1 sequence (whole entry): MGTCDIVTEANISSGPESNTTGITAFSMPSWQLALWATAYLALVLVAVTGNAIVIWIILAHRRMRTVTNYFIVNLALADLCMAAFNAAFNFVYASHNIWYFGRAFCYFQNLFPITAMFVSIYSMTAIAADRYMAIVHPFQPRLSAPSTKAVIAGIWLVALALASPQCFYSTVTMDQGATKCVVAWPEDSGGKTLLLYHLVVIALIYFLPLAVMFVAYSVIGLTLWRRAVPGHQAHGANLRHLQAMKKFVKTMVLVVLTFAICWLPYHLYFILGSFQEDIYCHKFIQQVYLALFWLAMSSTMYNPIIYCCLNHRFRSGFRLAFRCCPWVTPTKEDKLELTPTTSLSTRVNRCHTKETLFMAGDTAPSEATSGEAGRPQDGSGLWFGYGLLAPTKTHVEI

[2] = molecular target: Integrin alpha-4/beta-1 (Homo sapiens) (UniProt P05556+P13612); experiment: Inhibition of integrin alpha-4-beta-1-mediated U937 and Jurkat cell adhesion to VCAM-1 coated surface up to 100 uM by BCECF fluorescence measurement; assay type: cell-based

inhibition [1]	inhibition [2]	SMILES
25%	–	COC(=O)C1=C2C[C@@H](C(=O)OCc3ccccc3)NC(=O)[C@H](C)NC(=O)[C@H](Cc3ccccc3)NC(=O)[C@H](Cc3ccccc3)NC(=O)[C@H](Cc3ccccc3)NC(=O)[C@H](C)NC(=O)[C@H]3O[C@H](O2)[C@H](S1)[C@@H](O)[C@@H]3O
–	inactive	CC[C@H](C)[C@@H]1NC(=O)[C@H](CCC(=O)O)NC(=O)[C@H]2O[C@@H]3OC(=C(C(=O)OC)S[C@@H]3[C@@H](O)[C@@H]2O)C[C@@H](C(=O)O)NC(=O)[C@H](C(C)C)NC(=O)[C@H](CC(=O)O)NC(=O)[C@H](CC(C)C)NC1=O
